The source made the active and inactive calls. How the calls were made is not given here.
Molecular target: Bcl-2-like protein 1 (Homo sapiens) (UniProt Q07817)
Experiment: Bim-Bcl-XL interaction inhibitors, potency, dose response, biochemical, multiplexed, bead flow cytometry, human Bcl-XL (AID 1322); on inhibition: test concentration not given here
Conditions: Bead-based flow cytometry, Bim peptide-Bcl-XL binding, MCF; for inhibition: active compounds read high

Sequence of Bcl-2-like protein 1 (Homo sapiens) (Q07817 whole entry, looked up): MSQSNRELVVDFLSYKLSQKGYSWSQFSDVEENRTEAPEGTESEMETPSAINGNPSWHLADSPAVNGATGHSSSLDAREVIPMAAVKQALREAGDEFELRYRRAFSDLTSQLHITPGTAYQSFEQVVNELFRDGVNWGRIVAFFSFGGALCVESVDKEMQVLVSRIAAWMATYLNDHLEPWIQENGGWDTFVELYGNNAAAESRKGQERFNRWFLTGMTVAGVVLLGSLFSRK

Row | SMILES | inhibition | other results
1 | S=c1[nH]cc(-c2ccccc2)n1-c1ccccc1Cl | inactive | 
2 | Clc1ccc2c(N/N=C/c3ccccc3Br)ccnc2c1 | inactive | 
3 | COc1ccc(CN(CC(=O)NC2CCCC2)C(=O)CCC(=O)Nc2cc(C)on2)cc1 |  | outcome: inactive
4 | O=C1Nc2ccc([N+](=O)[O-])cc2OC1CCN1CCN(Cc2ccc3c(c2)OCO3)CC1 (stereo not drawn) |  | outcome: inactive
5 | CC(C)(C)OC(=O)N1CCN(C(=O)[C@H](Cc2ccc(O)cc2)n2cc(CCO)nn2)CC1 | inactive | 
6 | Cc1cc(N/C(=N/S(=O)(=O)c2cc(F)ccc2F)c2ccccc2)n(-c2ccccc2)n1 |  | outcome: inactive
7 | Cc1[nH]n(C(N)=S)c(=O)c1N=Nc1ccc(S(=O)(=O)N2CCCCCC2)cc1 | inactive | 
8 | Cc1ccc(/C=C2/NC(=O)N(Cc3ccc(Br)cc3)C2=O)o1 | inactive | 
9 | CCc1ccc(NC(=O)Cc2ccc(OC)cc2)cc1 |  | outcome: inactive
10 | CC(=O)NC(=O)Nc1sc(=S)n(C)c1C | inactive | 
11 | O=C(Nc1nnc(SCc2ccccn2)s1)C1CC(=O)N(c2ccccc2)C1 (stereo not drawn) | inactive | 
12 | O=C(NC1=NCCS1)NC12CC3CC(CC(C3)C1)C2 | inactive | 
13 | CCOc1ccccc1C(=O)NC1CC2CCCC(C1)N2C1CC1 (stereo not drawn) | inactive | 
14 | C=CCn1c(SCC(=O)Nc2ccc3c(c2)OCO3)nnc1-c1cc(Br)ccc1O | inactive | 
15 | Cc1nnc(Sc2cc(NCCCO)c([N+](=O)[O-])c3nonc23)s1 | inactive | 
16 | COc1ccc(N2CCN(CCCNC(=O)CCCn3c(=O)[nH]c4ccsc4c3=O)CC2)cc1 | inactive | 
17 | O=C(Cn1c(-c2ccccc2)noc1=O)N1CCC(Cc2ccccc2)CC1 |  | outcome: inactive
18 | COc1ccc(/C=C/C(=O)Nc2sc(Cc3ccccc3)c(C)c2C(N)=O)cc1 | inactive | 
19 | CNc1ccc(Br)cc(C(=O)/C=C/c2cccc(OC)c2OC)c1=O | inactive | 
20 | Cc1cc(C)cc(NS(=O)(=O)c2ccc3c(c2)c(=O)n(C)c(=O)n3C)c1 | inactive | 
21 | Cc1cc(Cl)c(S(=O)(=O)NCC2CCCO2)cc1OCC(N)=O (stereo not drawn) | inactive | 
22 | O=C1CCc2cc(S(=O)(=O)NCCCC(=O)N3CCN(Cc4ccc5c(c4)OCO5)CC3)ccc2N1 |  | outcome: inactive
23 | O=C1NCCN1C(=O)N(c1ccccc1)c1ccccc1 | inactive | 
24 | Cc1occc1C(=O)NNC(=S)NCc1ccccc1 | inactive | 
25 | COc1ccc(-n2cc(-c3ccc(OC)c(OC)c3)[nH]c2=S)cc1 | inactive | 
26 | CN(C(=O)NC1CCCCC1)c1ccccc1 | inactive | 

Row | SMILES | inhibition | other results
27 | Cc1nc(=S)c2ccccc2[nH]1 | inactive | 
28 | COc1ccc(-c2noc(COc3ccc4c(c3)OCO4)n2)cc1OC | inactive | 
29 | Cc1ccc(NC2=C(Cl)C(=O)c3ccccc3C2=O)cc1 | inactive | 
30 | CCN(CC)c1ccc(-c2nn3c(-c4ccccc4OC)nnc3s2)cc1 | inactive | 
31 | COc1ccc2oc(-c3ccccc3)c(C(=O)N3CCOCC3)c2c1 | inactive | 
32 | CCC(=O)N(CC)C1=C(O)c2ccccc2C(=O)C1=O | inactive | 
33 | Cc1cnnn1-c1ccc(C(=O)CCl)cc1 | inactive | 
34 | O=C(NCCCN1CCN(CCCNC(=O)c2cc([N+](=O)[O-])ccc2Cl)CC1)c1cc([N+](=O)[O-])ccc1Cl | inactive | 
35 | Cc1ccc(N=Cc2c(O)n(-c3ccc4c(c3)OCO4)c(=O)c3ccccc23)cc1 | inactive | 
36 | CCCOc1ccc(-c2c(C(=O)N/N=C/c3ccc(OC)cc3)nnn2-c2nonc2N)cc1 | inactive | 
37 | CCOc1cc(/C=C2/N=C(C)C(C(=O)OC)=C2O)ccc1O | inactive | 
38 | COc1ccc(OC)c2sc(NC(=O)c3ccc(Br)s3)nc12 | inactive | 
39 | c1ccc(-c2nc(N3CCOCC3)s[n+]2-c2ccccc2)cc1 | inactive | 
40 | O=C(/C=C/c1ccc(-c2ccccc2[N+](=O)[O-])o1)c1ccc(F)cc1 | inactive | 
41 | CC1Nc2ccccc2C(=O)N1NS(C)(=O)=O (stereo not drawn) | inactive | 
42 | CC(C)CNC(=O)c1cccc(NC(=O)c2ccc(Cl)c([N+](=O)[O-])c2)c1 | inactive | 
43 | Cc1ccc(-c2cc(C(=O)Nc3cc(C(=O)O)ccc3C)c3ccccc3n2)cc1 |  | outcome: inactive
44 | O=C(Nc1nnc(C2CC2)s1)C1Cc2ccccc2CN1S(=O)(=O)c1ccccc1F (stereo not drawn) | inactive | 
45 | CN=c1scc(-c2cccs2)n1/N=C/c1ccc(O)c(O)c1O | inactive | 
46 | O=C(c1cc(=O)c2ccccc2o1)N1CCN(c2ccccc2F)CC1 | inactive | 
47 | Brc1ccc2ncnc(Nc3ccc(N4CCOCC4)cc3)c2c1 | inactive | 
48 | CCN(CC)c1ccc(NC(=O)c2cccc(C)c2)cc1S(=O)(=O)Nc1ccccc1OC | inactive | 
49 | Cc1ccc(C)c(/C=C/C(=O)c2ccccc(=O)c2O)c1 | inactive | 
50 | CNc1ccc(Br)cc(C(=O)/C=C/c2ccc(OC)cc2OC)c1=O | inactive | 
51 | Cc1cc(C)nc(/N=c2/ssnc2Cl)c1 | inactive | 
52 | COc1ccc(N=C2NC(=O)/C(=C\C=C\c3ccco3)S2)cc1 | inactive | 

Row | SMILES | inhibition | other results
53 | Cc1cc(-c2nnc(CCC(=O)NC(C)c3cccc4ccccc34)o2)no1 (stereo not drawn) |  | outcome: inactive
54 | COC(=O)c1[nH]c2ccccc2c1NC(=O)c1ccccc1[N+](=O)[O-] |  | outcome: inactive
55 | Cc1ccc(C(=O)N(CCCN(C)C)c2nc3ccc(Cl)cc3s2)cc1C |  | outcome: inactive
56 | CCn1c(C)c(/C=N/Nc2nc3ccccc3s2)c2ccccc21 | inactive | 
57 | CCn1cc(C=C2C(=O)c3ccccc3C2=O)c2ccccc21 | inactive | 
58 | CCN(CC)CCN(C(=O)c1ccc(N2C(=O)CCC2=O)cc1)c1nc2cc3c(cc2s1)OCCO3 |  | outcome: inactive
59 | CCOC(=O)C1CCCN(c2ncnc3c2cnn3-c2cccc(C)c2)C1 (stereo not drawn) | inactive | 
60 | CCOC(=O)c1snc(-c2ccc(F)cc2)c1N | inactive | 
61 | Cc1nnc(Sc2cc(NCCO)c([N+](=O)[O-])c3nonc23)s1 | inactive | 
62 | COc1ccc(S(=O)(=O)NCCSc2ccc(Cl)cc2)cc1OC | inactive | 
63 | COC(=O)c1cccc(-n2c(C)cc(C=O)c2C)c1 |  | outcome: inactive
64 | CCOc1cc(NC(=S)NC)c(OCC)cc1NC(=O)c1ccc(OC)cc1 |  | outcome: inactive
65 | O=C(N/N=C/c1cccnc1)c1cccc(S(=O)(=O)N2CCCC2)c1 |  | outcome: inactive
66 | N=C1C(c2nc3ccccc3s2)=C(O)CN1Cc1ccccc1 | inactive | 
67 | CN1C(=O)/C(=C/c2ccc(-c3ccccc3[N+](=O)[O-])o2)SC1=Nc1ccc(Cl)c(C(=O)O)c1 | inactive | 
68 | N/C(Cc1ccc(Cl)c(Cl)c1)=N\OC(=O)c1cccs1 | inactive | 
69 | O=C1N/C(=C/c2cccn2-c2ccccc2)C(=O)N1Cc1ccc(F)cc1 |  | outcome: inactive
70 | COc1ccccc1NC(=O)CSc1ncn(-c2ccccc2)n1 | inactive | 
71 | O=C(NCC1CCCO1)c1ccc2c(=O)n(-c3ccc(F)cc3)c(=S)[nH]c2c1 (stereo not drawn) | inactive | 
72 | COc1ccc(N2C(=O)C(Cl)=C(Oc3cccc(OC)c3)C2=O)cc1 | inactive | 
73 | CN(CCO)c1cc(Sc2nc3ccccc3s2)c2nonc2c1[N+](=O)[O-] | inactive | 
74 | O=C(C[n+]1ccc(-c2nnc3n2CCC3)cc1)c1ccc(Cl)c(Cl)c1 | inactive | 
75 | Cc1ccc(-c2cc(C(=O)Nc3nccs3)c3ccccc3n2)o1 | inactive | 
76 | Cn1c(N)c(C(=O)COC(=O)c2cc(-c3ccco3)nc3ccccc23)c(=O)n(C)c1=O | inactive | 
77 | O=C(NCCCN1CCCC1=O)NC1CCCCC1 | inactive | 
78 | COc1ccc(OC)c(NC(=O)COC(=O)c2cc3c(s2)CCC3)c1 | inactive | 

Row | SMILES | inhibition | other results
79 | O=C(NC1=C(Nc2ccc(F)cc2)C(=O)c2ccccc2C1=O)c1ccc(Cl)cc1 | inactive | 
80 | O=C1NC(=O)C(=Cc2ccc(-c3cc(Cl)ccc3[N+](=O)[O-])o2)C(=O)N1 |  | outcome: inactive
81 | CC(C)Cc1cc(-c2ccco2)c(C#N)c(N)n1 | inactive | 
82 | NC(=O)c1c(NC(=O)C2CCCO2)sc2c1CCCC2 (stereo not drawn) | inactive | 
83 | Cc1ccc(/C=N/N(C)C2=NS(=O)(=O)c3ccccc32)o1 | inactive | 
84 | Cc1cc(C)c[n+](-c2nc3ccccc3nc2C(=C=[N-])C#N)c1 | inactive | 
85 | O=[N+]([O-])c1cccc(S(=O)(=O)NCC2CCCO2)c1 (stereo not drawn) | inactive | 
86 | Cc1ccc(C(NC(=O)C(C)C)c2cc([N+](=O)[O-])c3cccnc3c2O)cc1 (stereo not drawn) |  | outcome: inactive
87 | CCOC(=O)C1=C(CP(=O)(c2ccccc2)c2ccccc2)NC(=O)NC1c1ccc(OC)cc1 (stereo not drawn) | inactive | 
88 | c1ccc(C2=Nc3cccc4cccc(c34)N2)cc1 | inactive | 
89 | COc1ccccc1C1=Nc2cccc3cccc(c23)N1 | inactive | 
90 | Cn1c(OCc2cccnc2)nc2c1c(=O)n(Cc1ccccc1)c(=O)n2C | inactive | 
91 | COc1ccc(-n2c(NC(=O)c3ccco3)c(C#N)c3nc4ccccc4nc32)cc1 | inactive | 
92 | COc1c(C)cc(Br)cc1C(=O)Nc1ccc(S(N)(=O)=O)cc1 |  | outcome: inactive
93 | COc1cccc(-n2nnnc2SCC(=O)Nc2cccc(NC(C)=O)c2)c1 | inactive | 
94 | COc1cc(/C=N/Nc2nn3cnnc3c3ccccc23)ccc1O |  | EC50: inactive
95 | CC(C)COC(=O)/C(C#N)=C/c1cn(Cc2ccccc2)c2ccccc12 | inactive | 
96 | c1csc(C2=Nn3c(nnc3-c3ccncc3)SC2)c1 | inactive | 
97 | CC(=O)N1CCN(C(=O)c2ccc(-n3c(C)ccc3C)cc2)CC1 | inactive | 
98 | CN=C(NC1CCCCC1)c1ccc(Cl)cc1 |  | outcome: inactive
99 | O=C(Cn1c2ccccc2c(=O)c2ccccc21)N/N=C/c1ccc(N2CCCC2)c([N+](=O)[O-])c1 | inactive | 
100 | C=CCSc1nc(N)c2c(C)c(C)sc2n1 | inactive | 
101 | COc1cc2c(cc1OC)C(c1ccccc1F)OC(=O)C2 (stereo not drawn) | inactive | 
102 | COc1cccc2c(SCC(=O)N/N=C/c3ccc(O)c(O)c3)cc(C)nc12 | inactive | 
103 | O=[N+]([O-])c1c(NCCCO)cc(Sc2nc3ccccc3s2)c2nonc12 | inactive | 
